Measurements published in publication PMC6338644 (The FASEB Journal, 2018).
“And” between values parts separate entries of the source, which are not always exact repeats. Equal values may be shown once. Where a name gives a salt, the structure may show the parent alone. Read-outs that look alike come from different tables or passages of the source.

Columns and labels:
[1] = target: T1, phosphatase and tensin homolog (PTEN) (Homo sapiens, UniProt P60484); experiment: Manual malachite green phosphate assay, PTEN activity; format: biochemical
T1 construct: purchased Signalchem
T1 sequence (P60484 whole entry, species assumed): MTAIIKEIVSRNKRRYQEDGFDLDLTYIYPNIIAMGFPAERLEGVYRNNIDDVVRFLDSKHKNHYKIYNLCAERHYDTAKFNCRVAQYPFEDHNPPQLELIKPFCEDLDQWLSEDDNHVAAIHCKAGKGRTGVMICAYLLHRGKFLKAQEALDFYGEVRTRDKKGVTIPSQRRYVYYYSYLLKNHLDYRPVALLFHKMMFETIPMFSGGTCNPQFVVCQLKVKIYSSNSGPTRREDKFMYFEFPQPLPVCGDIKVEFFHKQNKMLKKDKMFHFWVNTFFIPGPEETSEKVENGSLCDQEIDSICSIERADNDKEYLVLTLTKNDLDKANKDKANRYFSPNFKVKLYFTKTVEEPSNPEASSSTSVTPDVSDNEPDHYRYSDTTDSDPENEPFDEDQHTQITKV

[2] = target: T2, His-tagged human SHIP2 phosphatase domain (Homo sapiens, UniProt O15357); experiment: Malachite green phosphate assay, recombinant SHIP2 phosphatase domain (High Throughput Biomedicine Unit, 384-well); format: biochemical
T2 construct: we produced a His-tagged human SHIP2 phosphatase domain; His; made in house
T2 sequence (O15357 419-732 limits assumed): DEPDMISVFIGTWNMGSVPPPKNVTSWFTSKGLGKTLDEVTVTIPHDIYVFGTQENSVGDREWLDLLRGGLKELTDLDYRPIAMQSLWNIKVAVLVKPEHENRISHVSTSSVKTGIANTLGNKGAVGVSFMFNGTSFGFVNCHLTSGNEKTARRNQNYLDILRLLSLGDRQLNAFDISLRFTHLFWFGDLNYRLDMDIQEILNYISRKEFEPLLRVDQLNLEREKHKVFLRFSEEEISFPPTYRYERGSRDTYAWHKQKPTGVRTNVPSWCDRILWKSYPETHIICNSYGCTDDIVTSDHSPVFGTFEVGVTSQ
Protocol: (§1) Recombinant His-tagged human SHIP2 and SHIP1 phosphatase domains were produced as previously described ([17]). […] Immunocomplexes were bound to protein G-Sepharose beads at +4°C for 2 h and washed 3 times with malachite green phosphate assay buffer {10 mM 4-(2-hydroxyethyl)-1-piperazineethanesulfonic acid (HEPES), pH 7.25, 6 mM MgCl2, 0.1% 3-[(3-cholamidopropyl)dimethylammonio]-1-propanesulfonate (CHAPS), 250 mM sucrose, and 0.25 mM EDTA}.
(§2) The catalytic activities of the recombinant SHIP2 and SHIP1 phosphatase domains were determined by malachite green phosphate assay at the High Throughput Biomedicine Unit (University of Helsinki) using D-myo-PI(3,4,5)P3 (Echelon Biosciences, Salt Lake City, UT, USA). Different volumes, resulting in desired final concentrations of inhibitors, were transferred to the wells of 384-well plates by using the Echo550 acoustic dispenser (Labcyte, San Jose, CA, USA). Recombinant protein (100 ng) in reaction buffer {10 mM HEPES, pH 7.25, 6 mM MgCl2, 0.1% CHAPS, 250 mM sucrose, and 0.25 mM EDTA} was placed in each well (7.5 µl), and the plates were preincubated at room temperature for 15 min. The phosphatase reaction was started by adding PI(3,4,5)P3 diluted in the reaction buffer (7.5 µl) to each well to reach a final concentration of 100 µM PI(3,4,5)P3 in the 15 µl reaction volume. The plates were incubated at room temperature for 20 min, after which, 15 µl BIOMOL green reagent (Biomol, Plymouth Meeting, PA, USA) was added to each well, and then the plates were incubated for another 25 min at room temperature. Absorbance was measured at 620 nm using a Pherastar FS plate reader (BMG Labtech, Offenburg, Germany). For the manual malachite green phosphate assay in 96-well plates [see Fig. 1; and activity measurement of phosphatase and tensin homolog (PTEN; Signalchem, Richmond, BC, Canada)], the reaction volume was increased to 50 µl, and 100 µl Biomol Green Reagent was added. The catalytic activity of SHIP2 immunoprecipitated from cell and tissue lysates was determined as in Saurus et al. ([22]), omitting SHIP2 inhibitors in lysis buffer, immunoprecipitation reaction, wash, and assay buffers. AS1949490 was synthesized, as described in Supplemental Fig. S1A, or purchased from Tocris Bioscience (Bristol, United Kingdom).

[3] = target: T3, SHIP2 immunoprecipitated from the lysates of podocytes (Homo sapiens, UniProt O15357); experiment: Activity of SHIP2 immunoprecipitated from podocytes; format: cell-based; settings: 20–24 h
T3 construct: endogenous in cells; host or cells: immortalized human podocytes
T3 sequence (O15357 1-1258): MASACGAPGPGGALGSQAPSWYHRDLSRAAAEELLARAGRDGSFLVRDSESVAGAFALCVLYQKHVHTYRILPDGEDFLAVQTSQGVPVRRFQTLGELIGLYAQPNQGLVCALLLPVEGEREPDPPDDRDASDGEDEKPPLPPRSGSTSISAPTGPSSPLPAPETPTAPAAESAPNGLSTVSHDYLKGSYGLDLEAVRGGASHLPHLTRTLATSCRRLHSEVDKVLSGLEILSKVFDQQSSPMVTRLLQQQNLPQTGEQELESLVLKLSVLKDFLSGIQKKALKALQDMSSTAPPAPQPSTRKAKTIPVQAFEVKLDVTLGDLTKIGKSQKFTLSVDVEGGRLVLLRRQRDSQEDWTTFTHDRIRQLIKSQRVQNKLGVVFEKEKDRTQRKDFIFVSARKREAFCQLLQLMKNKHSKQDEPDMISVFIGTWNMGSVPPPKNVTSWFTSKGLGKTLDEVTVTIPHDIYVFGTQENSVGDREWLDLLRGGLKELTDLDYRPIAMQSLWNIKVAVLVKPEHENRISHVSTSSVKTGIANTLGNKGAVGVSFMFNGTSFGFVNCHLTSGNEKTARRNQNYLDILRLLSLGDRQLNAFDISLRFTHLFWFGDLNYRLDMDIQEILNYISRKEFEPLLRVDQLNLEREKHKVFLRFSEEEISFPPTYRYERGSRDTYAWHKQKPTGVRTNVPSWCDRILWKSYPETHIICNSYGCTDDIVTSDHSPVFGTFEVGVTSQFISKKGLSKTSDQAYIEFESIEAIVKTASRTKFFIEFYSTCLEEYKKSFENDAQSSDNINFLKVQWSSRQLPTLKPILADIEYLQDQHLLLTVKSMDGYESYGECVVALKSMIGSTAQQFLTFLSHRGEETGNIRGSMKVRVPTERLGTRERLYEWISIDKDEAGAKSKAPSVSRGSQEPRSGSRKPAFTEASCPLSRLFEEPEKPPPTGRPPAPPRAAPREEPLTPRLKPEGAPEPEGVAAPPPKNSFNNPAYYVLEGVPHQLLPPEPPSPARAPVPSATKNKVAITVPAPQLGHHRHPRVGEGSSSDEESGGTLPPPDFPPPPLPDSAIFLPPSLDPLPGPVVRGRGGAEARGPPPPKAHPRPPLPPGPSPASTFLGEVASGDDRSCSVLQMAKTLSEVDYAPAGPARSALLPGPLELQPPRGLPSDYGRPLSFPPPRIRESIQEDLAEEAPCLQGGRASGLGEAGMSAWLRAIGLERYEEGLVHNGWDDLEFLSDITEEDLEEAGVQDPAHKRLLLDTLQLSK
Protocol: (§3) Immortalized human podocytes were maintained as previously described ([10]). […] Podocytes were lysed as previously described ([21]).
as §1
as §2, with “The plates were incubated at room temperature for 20 min, after which, 15 µl BIOMOL green reagent (Biomol, Plymouth Meeting, PA, USA) was added to each well, and then the plates were incubated for another 25 min at room temperature.” left out, “For the manual malachite green phosphate assay in 96-well plates [see Fig. 1; and activity measurement of phosphatase and tensin homolog (PTEN; Signalchem, Richmond, BC, Canada)], the reaction volume was increased to 50 µl, and 100 µl Biomol Green Reagent was added.” left out, “AS1949490 was synthesized, as described in Supplemental Fig. S1A, or purchased from Tocris Bioscience (Bristol, United Kingdom).” left out
Hydrogen bond is shown in green. […] The catalytic activity of SHIP2 was measured by manual malachite green phosphate assay.

[4] = test system: SHIP2 immunoprecipitated from the lysates of L6 myotubes; format: cell-based, rat; settings: 20–24 h
Protocol: as §3, §1, §2
Hydrogen bond is shown in green. Hydrophobic residues are shown in gray, positive-charged residues in blue, and negative-charged residues in red. […] The catalytic activity of SHIP2 was measured by manual malachite green phosphate assay.

| inhibition of PTEN (in words) [1] | PTEN IC50 ([1]; manual assay) | inhibition at 100 µM ([2]; inhibitors at 100 µM concentration, read-out: SHIP2 Inhibition efficiency) | IC50 ([2]; purified His-tagged phosphatase domain, 100 µM PI(3,4,5)P3) | reduction of SHIP2 activity in podocytes ([3]; 1 mM) | Compound | PTEN Inhibition efficiency ([1]; inhibitors at 100 µM concentration) | IC50 ([1]; manual assay) | SHIP2 Inhibition efficiency ([2]; inhibitors at 100 µM concentration, 100 µM) | reduction of SHIP2 activity in podocytes ([3]; 20 µM) | reduction of SHIP2 activity in myotubes ([4]; 20 µM) | reduction of SHIP2 activity in myotubes ([4]; 1 mM) | SHIP2 overexpression-induced SHIP2 activity in myotubes ([4]; L6 myotubes overexpressing SHIP2, 1 mM) |
| --- | --- | --- | --- | --- | --- | --- | --- | --- | --- | --- | --- | --- |
|  |  |  |  |  | C[C@H](NC(=O)c1sccc1OCc1ccc(Cl)cc1)c1ccccc1 [AS1949490] | 0% | > 50 µM | 26% and 25.9% | 20–30% | ~30% |  |  |
| does not inhibit | >50 µM | 39.4% | 6 µM | 14% | CN(C)C(=N)N=C(N)N [Metformin, 1,1-Dimethylbiguanide hydrochloride] |  |  |  | 20–30% | ~30% | 24% | to the level in the control |
